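These data come from cells grown in 96-well plates and exposed to compound for 48 hours at five concentrations. The concentration for 50% growth inhibition is given as GI50.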 Calls of active or inactive are those of the source. Cut-off read from the data, not from the text of the source: active = GI50 up to about 1.1 µM and inactive = higher.
Assays:
Experiment in all cases: NCI tumour cell line growth inhibition, 48 h
SK-MEL-2 = system: SK-MEL-2
U-251 = system: U-251
SK-MEL-28 = system: SK-MEL-28
DU-145 = system: DU-145
SNB-75 = system: SNB-75
TK-10 = system: TK-10
NCI/ADR-RES = system: NCI/ADR-RES
HCC 2998 = system: HCC 2998
KM12 = system: KM12
OVCAR-3 = system: OVCAR-3
UO-31 = system: UO-31
OVCAR-8 = system: OVCAR-8
MDA-MB-231 = system: MDA-MB-231
HCT-116 = system: HCT-116
NCI-H460 = system: NCI-H460
CAKI-1 = system: CAKI-1
SF-539 = system: SF-539
NCI-H226 = system: NCI-H226
OVCAR-4 = system: OVCAR-4
NCI-H23 = system: NCI-H23

Measured: GI50

O=c1cc(CSc2c(-c3ccccc3)c(=O)n(-c3ccccc3)c(=S)n2-c2ccccc2)[nH]c(=O)[nH]1
inactive: SK-MEL-2 > 100 µM | U-251 > 100 µM | SK-MEL-28 > 100 µM | DU-145 > 100 µM | SNB-75 > 100 µM | TK-10 > 100 µM | NCI/ADR-RES > 100 µM | HCC 2998 > 100 µM | KM12 > 100 µM | OVCAR-3 > 100 µM | UO-31 > 100 µM | OVCAR-8 > 100 µM | MDA-MB-231 > 100 µM | HCT-116 > 100 µM | NCI-H460 > 100 µM | CAKI-1 > 100 µM | SF-539 > 100 µM

COc1ccc(C2SC(=N)Nc3c2c(C)nn3C(=O)c2ccc(Cl)cc2)cc1OC (stereo unspecified)
inactive: SK-MEL-2 > 10 µM | U-251 > 10 µM | NCI-H226 > 10 µM | SK-MEL-28 > 10 µM | OVCAR-4 > 10 µM | DU-145 > 10 µM | SNB-75 > 10 µM | TK-10 > 10 µM | NCI-H23 > 10 µM | NCI/ADR-RES > 10 µM | HCC 2998 > 10 µM | KM12 > 10 µM | OVCAR-3 > 10 µM | OVCAR-8 > 10 µM | MDA-MB-231 > 10 µM | HCT-116 > 10 µM | NCI-H460 > 10 µM | CAKI-1 > 10 µM | SF-539 > 10 µM

O=C1Nc2ccccc2/C1=C1\C(=O)Nc2ccccc21 [ISOINDIGO]
inactive: SK-MEL-2 18.5 µM | U-251 11.4 µM | NCI-H226 > 100 µM | SK-MEL-28 91.2 µM | OVCAR-4 10 µM | DU-145 12.9 µM | SNB-75 14.1 µM | TK-10 31.6 µM | NCI-H23 20.9 µM | NCI/ADR-RES 17.3 µM | HCC 2998 23.2 µM | KM12 21.6 µM | OVCAR-3 19.3 µM | UO-31 13.6 µM | OVCAR-8 18.8 µM | MDA-MB-231 27.8 µM | HCT-116 17 µM | NCI-H460 21.6 µM | CAKI-1 19.7 µM

Nc1ccc(S2(c3ccc(N)cc3)C=C(c3ccccc3)C(c3ccccc3)=C2)cc1
inactive: SK-MEL-2 > 26.6 µM | U-251 > 25 µM | NCI-H226 > 21.8 µM | SK-MEL-28 > 31.1 µM | OVCAR-4 11 µM | DU-145 > 38.4 µM | SNB-75 > 100 µM | TK-10 > 27.9 µM | NCI-H23 > 47.2 µM | NCI/ADR-RES > 35.1 µM | HCC 2998 > 54 µM | KM12 > 54.7 µM | OVCAR-3 > 100 µM | UO-31 > 40.6 µM | OVCAR-8 > 26.4 µM | MDA-MB-231 > 24.2 µM | HCT-116 > 36 µM | NCI-H460 > 22.4 µM | SF-539 > 25.5 µM

Cc1ccc(S(=O)(=O)N2CCCSCCSCCCN(S(=O)(=O)c3ccc(C)cc3)CC2)cc1
inactive: SK-MEL-2 > 100 µM | U-251 > 100 µM | NCI-H226 > 100 µM | SK-MEL-28 > 100 µM | OVCAR-4 > 100 µM | DU-145 > 100 µM | SNB-75 > 100 µM | TK-10 > 100 µM | NCI-H23 > 100 µM | NCI/ADR-RES > 100 µM | HCC 2998 > 100 µM | KM12 > 100 µM | OVCAR-3 > 100 µM | UO-31 > 100 µM | OVCAR-8 > 100 µM | MDA-MB-231 > 100 µM | HCT-116 > 100 µM | NCI-H460 > 100 µM | SF-539 > 100 µM

CN(C)S(=O)(=O)/N=C/c1cccc(/C=N/S(=O)(=O)N(C)C)c1
inactive: U-251 > 100 µM | NCI-H226 > 100 µM | SK-MEL-28 > 100 µM | OVCAR-4 > 100 µM | DU-145 > 100 µM | SNB-75 22.9 µM | TK-10 > 100 µM | NCI-H23 > 100 µM | NCI/ADR-RES 81.7 µM | HCC 2998 > 100 µM | KM12 > 100 µM | OVCAR-3 > 100 µM | UO-31 > 100 µM | OVCAR-8 51.3 µM | MDA-MB-231 > 100 µM | HCT-116 33.3 µM | NCI-H460 > 100 µM | CAKI-1 > 100 µM | SF-539 23.9 µM

CCCCCCCCCCCCCCCCOP(=O)([O-])OCC[N+](C)(C)C1CC(C)(C)N(O)C(C)(C)C1
inactive: SK-MEL-2 > 100 µM | U-251 > 100 µM | NCI-H226 > 100 µM | OVCAR-4 > 100 µM | DU-145 > 100 µM | SNB-75 > 100 µM | TK-10 > 100 µM | NCI-H23 > 100 µM | NCI/ADR-RES > 100 µM | HCC 2998 > 100 µM | KM12 > 100 µM | OVCAR-3 > 100 µM | UO-31 > 100 µM | OVCAR-8 > 100 µM | MDA-MB-231 > 100 µM | HCT-116 > 100 µM | NCI-H460 > 100 µM | CAKI-1 > 100 µM | SF-539 > 100 µM

CC1=C(/C=C/Cl)CC(Cl)C(C)(Cl)C1 (stereo unspecified)
inactive: SK-MEL-2 > 100 µM | U-251 > 100 µM | NCI-H226 > 100 µM | SK-MEL-28 > 100 µM | OVCAR-4 83.8 µM | DU-145 > 100 µM | SNB-75 > 100 µM | TK-10 > 100 µM | NCI-H23 > 100 µM | NCI/ADR-RES > 100 µM | HCC 2998 > 100 µM | KM12 > 100 µM | UO-31 > 100 µM | OVCAR-8 > 100 µM | MDA-MB-231 > 100 µM | HCT-116 > 100 µM | NCI-H460 > 100 µM | CAKI-1 > 100 µM | SF-539 > 100 µM

Cc1[nH]nc(C(=O)N/N=C/c2ccccc2Cl)c1/N=N\N(C)C
inactive: SK-MEL-2 > 100 µM | U-251 14.8 µM | NCI-H226 > 100 µM | SK-MEL-28 > 100 µM | OVCAR-4 14.9 µM | DU-145 4.28 µM | SNB-75 > 31 µM | TK-10 56.6 µM | NCI-H23 > 25.6 µM | NCI/ADR-RES 6.1 µM | HCC 2998 > 100 µM | KM12 2.86 µM | OVCAR-3 20.8 µM | UO-31 > 57.8 µM | OVCAR-8 7.98 µM | MDA-MB-231 > 43.5 µM | HCT-116 4.05 µM | CAKI-1 > 32.9 µM | SF-539 5.56 µM

O=C1CCC(C(=O)O)C2=C1CCCC2 (stereo unspecified)
inactive: SK-MEL-2 > 100 µM | U-251 > 15.7 µM | NCI-H226 > 14.4 µM | SK-MEL-28 > 100 µM | OVCAR-4 > 100 µM | DU-145 > 100 µM | SNB-75 > 100 µM | TK-10 > 100 µM | NCI-H23 > 15.5 µM | NCI/ADR-RES > 100 µM | HCC 2998 > 100 µM | KM12 > 35.6 µM | OVCAR-3 > 100 µM | OVCAR-8 > 100 µM | MDA-MB-231 > 100 µM | HCT-116 > 100 µM | CAKI-1 > 100 µM

From ChEMBL document CHEMBL1201862, “PubChem BioAssay data set” (2004)
